The text below walks through data of US12522597B2, “Methods and compositions for modulating splicing” (Skyhawk Therapeutics, Inc., priority 2019, dated 2026).

One data set deals with MDR1. Briefly: MDCK-MDR1 permeability assay (BBB penetration potential). The settings on record: dog; for efflux ratio at 120 min, 5 μM: MDCK-MDR1, pH 7.4, MDCK-MDR1: Efflux; for Papp A→B at 120 min, 5 μM: MDCK-MDR1, pH 7.4, MDCK-MDR1: Papp A-B; for Papp B→A at 120 min, 5 μM: MDCK-MDR1, pH 7.4, MDCK-MDR1: Papp B-A. The data set is classed as in vitro ADME. The protocol:
(§1) Each determination is performed in duplicate. […] Analytical conditions are outlined below.

The test system of data set [1] is MDR1-MDCK cell monolayers. The data set is described as above. It is filed as in vitro ADME. To be noted: dog, MDCK-MDR1, 120 min, 5 μM, pH 7.4. The procedure:
as §1

In the next data set the test system is mHTT protein. Briefly: mHTT protein assay (2B7-MW1, Mesoscale Discovery). It is filed as cell-based, human. The settings on record: GM04724 (CAG 70/20) Huntington's disease patient lymphoblast cells, 48 hours, 2B7-MW1 MSD; read-out: HTT Potency - Protein EC50 mHTT (average). The procedure: Compounds are tested on GM04724 (CAG 70/20) Huntington's disease patient lymphoblast cells at doses ranging from 10 μM to 0.6 nM. 4,500 cells/well are seeded in 384 well plates. One plate replica is carried out for parallel viability testing by CellTiter Glo (CTG). Compounds are incubated for 48 hours, mHTT protein levels are assessed by the 2B7-MW1 assay via Mesoscale Discovery (MSD) as previously reported (Macdonald et al., 2014). The antibody pair is comprised of previously characterized monoclonals (2B7 and MW1) interrogating two regions for HTT conformation and biological properties: the N17 domain and the polyQ domain (Baldo et al., 2012; Ko et., 2001). 2B7-MW1 is dependent on subject/animal specific levels of HTT at the time of treatment. 2B7-MW1 is dependent on polyQ expansion (e.g., the higher the expansion the higher the signal) and on mHTT size (e.g., a similar polyQ will give higher signal with smaller HTT size). The viability readout is carried out by CTG according to the manufacturer's instructions.

In general, efflux ratio refers to a quotient of directional permeabilities that is used to spot active efflux. One may read the Papp A→B as how fast a substance crosses the layer from the apical side. Higher therefore signals fast passage. Broadly, the Papp B→A is the apparent permeability from the basolateral to the apical side of a cell layer. By pEC50 is commonly meant −log10 of the EC50, conventionally taken in molar units.

pEC50: −log10 of the molar value.

`Oc1cc2cnccc2cc1-c1ccc(O[C@H]2C[C@@H]3CCC[C@@H](N3)[C@H]2F)nn1` (single isomer, unassigned) [80-ENT2]: in the data set with MDR1, the efflux ratio at 120 min, 5 μM is 3; the Papp A→B at 120 min, 5 μM turned out to be 9.2 ×10⁻⁶ cm/s; the Papp B→A at 120 min, 5 μM amounted to 32.1 ×10⁻⁶ cm/s. Further, in data set [1], the “MDCK-MDR1: % Recov A-B” value amounted to 72% and the “MDCK-MDR1: % Recov B-A” value was 84%. Moreover, the pEC50 in the data set with mHTT protein is 5.00 to 6.30.
Consider `C[C@@]12CC[C@@](C)(N1)[C@@H](F)[C@@H](Oc1ccc(-c3ccc(-n4cccn4)cc3O)nn1)C2` (single isomer, unassigned) [153-ENT2], for which, in the data set with MDR1, the efflux ratio at 120 min, 5 μM came out at 3; the Papp A→B at 120 min, 5 μM came out at 7.16 ×10⁻⁶ cm/s; the Papp B→A at 120 min, 5 μM came to 24.7 ×10⁻⁶ cm/s. For the same molecule, in data set [1], the “MDCK-MDR1: % Recov A-B” value is 60% and the “MDCK-MDR1: % Recov B-A” value turned out to be 71%. The pEC50 in the data set with mHTT protein was 7.30 to 7.80.
Consider `Cc1nnc(-c2ccc(-c3ccc(O[C@@H]4C[C@H]5CCC[C@H](N5)[C@@H]4F)nn3)c(O)c2)s1` (single isomer, unassigned) [95-ENT1], for which, in the data set on MDR1, the efflux ratio at 120 min, 5 μM was 10; the Papp A→B at 120 min, 5 μM was determined as 4.88 ×10⁻⁶ cm/s; the Papp B→A at 120 min, 5 μM was 48.8 ×10⁻⁶ cm/s. For the same molecule, in data set [1], the “MDCK-MDR1: % Recov A-B” value worked out at 72% and the “MDCK-MDR1: % Recov B-A” value is listed as 78%. Besides, the pEC50 in the data set with mHTT protein is 6.30 to 7.00.
In the case of `O=c1cc(-c2ccc(-c3ccc(O[C@H]4C[C@@H]5CCC[C@@H](N5)[C@H]4F)nn3)c(O)c2)ccn1CF` (single isomer, unassigned) [106-ENT2], in the data set with MDR1, the efflux ratio at 120 min, 5 μM came out at 39; the Papp A→B at 120 min, 5 μM is 1.45 ×10⁻⁶ cm/s; the Papp B→A at 120 min, 5 μM was 56.7 ×10⁻⁶ cm/s. Further, in data set [1], the “MDCK-MDR1: % Recov A-B” value was 79% and the “MDCK-MDR1: % Recov B-A” value worked out at 80%. The pEC50 in the data set with mHTT protein is 7.00 to 7.29.
Consider `Oc1cc(-c2nncs2)ccc1-c1ccc(O[C@@H]2C[C@H]3CCC[C@H](N3)[C@@H]2F)nn1` (single isomer, unassigned) [116-ENT1], for which, in the data set on MDR1, the efflux ratio at 120 min, 5 μM turned out to be 8; the Papp A→B at 120 min, 5 μM is 7.76 ×10⁻⁶ cm/s; the Papp B→A at 120 min, 5 μM is 59.2 ×10⁻⁶ cm/s. For the same molecule, in data set [1], the “MDCK-MDR1: % Recov A-B” value turned out to be 88% and the “MDCK-MDR1: % Recov B-A” value is 91%. Further, in the data set on mHTT protein, the pEC50 was 7.30 to 7.80.
In the case of `Cc1ncn(-c2ccc(-c3ccc(O[C@@H]4C[C@H]5CCC[C@H](N5)[C@@H]4F)nn3)c(O)c2)n1` (single isomer, unassigned) [70-ENT1], in the data set on MDR1, the efflux ratio at 120 min, 5 μM is 7; the Papp A→B at 120 min, 5 μM came out at 6.62 ×10⁻⁶ cm/s; the Papp B→A at 120 min, 5 μM is 44.6 ×10⁻⁶ cm/s. Also, in data set [1], the “MDCK-MDR1: % Recov A-B” value is reported as 93% and the “MDCK-MDR1: % Recov B-A” value worked out at 99%. Besides, the pEC50 with mHTT protein is 6.30 to 7.00.
`Oc1cc(-c2nnco2)c(F)cc1-c1ccc(O[C@@H]2C[C@H]3CCC[C@H](N3)[C@@H]2F)nn1` (single isomer, unassigned) [143-ENT2]: in the data set with MDR1, the efflux ratio at 120 min, 5 μM was determined as 8; the apparent permeability from apical to basolateral (Papp A→B) at 120 min, 5 μM was 6.91 ×10⁻⁶ cm/s; the Papp B→A at 120 min, 5 μM was 54.8 ×10⁻⁶ cm/s. Further, in data set [1], the “MDCK-MDR1: % Recov A-B” value is recorded as 81% and the “MDCK-MDR1: % Recov B-A” value came to 87%. Further, the pEC50 with mHTT protein is 7.00 to 7.29.
Regarding `Oc1cc(-c2cc[nH]n2)ccc1-c1ccc(O[C@@H]2C[C@H]3CCC[C@H](N3)[C@@H]2F)nn1` (single isomer, unassigned) [66-ENT1], in the data set on MDR1, the efflux ratio at 120 min, 5 μM is 11; the Papp A→B at 120 min, 5 μM came to 0.93 ×10⁻⁶ cm/s; the Papp B→A at 120 min, 5 μM came to 10.1 ×10⁻⁶ cm/s. Besides, in data set [1], the “MDCK-MDR1: % Recov A-B” value turned out to be 79% and the “MDCK-MDR1: % Recov B-A” value is listed as 80%. The negative logarithm of the EC50 (pEC50) with mHTT protein was 7.00 to 7.29.
On to `Oc1cc(-n2ncc3ccccc32)ccc1-c1ccc(O[C@@H]2C[C@H]3CC[C@H](N3)[C@@H]2F)nn1` (single isomer, unassigned) [114-ENT1], for which, in the data set with MDR1, the efflux ratio at 120 min, 5 μM stood at 3; the Papp A→B at 120 min, 5 μM is 4.74 ×10⁻⁶ cm/s; the Papp B→A at 120 min, 5 μM was found to be 13.5 ×10⁻⁶ cm/s. Further, in data set [1], the “MDCK-MDR1: % Recov A-B” value was 22% and the “MDCK-MDR1: % Recov B-A” value was 47%. For the same molecule, the negative logarithm of the EC50 (pEC50) in the data set with mHTT protein is 5.00 to 6.30.
For `Oc1cc(-c2ccc3nccn3c2)ccc1-c1ccc(O[C@@H]2C[C@H]3CCC[C@H](N3)[C@@H]2F)nn1` (single isomer, unassigned) [84-ENT1], in the data set with MDR1, the efflux ratio at 120 min, 5 μM turned out to be 11; the Papp A→B at 120 min, 5 μM turned out to be 1.56 ×10⁻⁶ cm/s; the Papp B→A at 120 min, 5 μM was determined as 17 ×10⁻⁶ cm/s. In addition, in data set [1], the “MDCK-MDR1: % Recov A-B” value is recorded as 44% and the “MDCK-MDR1: % Recov B-A” value amounted to 72%. Further, in the data set on mHTT protein, the pEC50 was 7.30 to 7.80.
As for `Cc1nc(-c2ccc(-c3ccc(O[C@@H]4C[C@H]5CCC[C@H](N5)[C@@H]4F)nn3)c(O)c2)co1` (single isomer, unassigned) [92-ENT1], in the data set with MDR1, the efflux ratio at 120 min, 5 μM amounted to 5; the apical-to-basolateral permeability (Papp A→B) at 120 min, 5 μM amounted to 5.99 ×10⁻⁶ cm/s; the Papp B→A at 120 min, 5 μM came out at 30.9 ×10⁻⁶ cm/s. For the same molecule, in data set [1], the “MDCK-MDR1: % Recov A-B” value is 65% and the “MDCK-MDR1: % Recov B-A” value came to 74%. The pEC50 with mHTT protein was 6.30 to 7.00.
Take `Oc1cc(-n2ccnc2)ccc1-c1ccc(O[C@H]2C[C@@H]3CC[C@@H](N3)[C@H]2F)nn1` (single isomer, unassigned) [36-ENT2]: in the data set on MDR1, the efflux ratio at 120 min, 5 μM was 5; the Papp A→B at 120 min, 5 μM worked out at 5.41 ×10⁻⁶ cm/s; the Papp B→A at 120 min, 5 μM came out at 28.9 ×10⁻⁶ cm/s. Moreover, in data set [1], the “MDCK-MDR1: % Recov A-B” value turned out to be 61% and the “MDCK-MDR1: % Recov B-A” value was 73%. Also, the pEC50 with mHTT protein is 7.00 to 7.29.
For the molecule `Oc1cc(-c2ccn3cnnc3c2)ccc1-c1ccc(O[C@H]2C[C@@H]3CCC[C@@H](N3)[C@H]2F)nn1` (single isomer, unassigned) [86-ENT2], in the data set on MDR1, the efflux ratio at 120 min, 5 μM is 48; the apparent permeability from apical to basolateral (Papp A→B) at 120 min, 5 μM came out at 0.42 ×10⁻⁶ cm/s; the Papp B→A at 120 min, 5 μM was 20.3 ×10⁻⁶ cm/s. Also, in data set [1], the “MDCK-MDR1: % Recov A-B” value came to 75% and the “MDCK-MDR1: % Recov B-A” value came to 74%. In addition, the pEC50 in the data set with mHTT protein was 6.30 to 7.00.
For the molecule `Cn1ccc(=O)c2cc(-c3ccc(O[C@@H]4C[C@@]5(C)CCC[C@](C)(N5)[C@@H]4F)nn3)c(O)cc21` (single isomer, unassigned) [131-ENT2], in the data set with MDR1, the efflux ratio at 120 min, 5 μM worked out at 56; the Papp A→B at 120 min, 5 μM turned out to be 0.79 ×10⁻⁶ cm/s; the Papp B→A at 120 min, 5 μM came out at 44.6 ×10⁻⁶ cm/s. Moreover, in data set [1], the “MDCK-MDR1: % Recov A-B” value is 91% and the “MDCK-MDR1: % Recov B-A” value is 96%. In addition, the pEC50 in the data set with mHTT protein was 5.00 to 6.30.
Turning to `Cn1ccc(=O)c2cc(-c3ccc(O[C@H]4C[C@]5(C)CCC[C@@](C)(N5)[C@H]4F)nn3)c(O)cc21` (single isomer, unassigned) [131-ENT1], in the data set on MDR1, the efflux ratio at 120 min, 5 μM turned out to be 70; the Papp A→B at 120 min, 5 μM worked out at 0.71 ×10⁻⁶ cm/s; the Papp B→A at 120 min, 5 μM stood at 49.5 ×10⁻⁶ cm/s. In data set [1], the “MDCK-MDR1: % Recov A-B” value is 95% and the “MDCK-MDR1: % Recov B-A” value is given as 99%. In addition, the negative logarithm of the EC50 (pEC50) with mHTT protein is 5.00 to 6.30.
`Cc1cncc(-c2ccc(-c3ccc(O[C@H]4C[C@@H]5CCC[C@@H](N5)[C@H]4F)nn3)c(O)c2)c1` (single isomer, unassigned) [89-ENT2]: in the data set on MDR1, the efflux ratio at 120 min, 5 μM came to 13; the Papp A→B at 120 min, 5 μM was determined as 2.61 ×10⁻⁶ cm/s; the apparent permeability from basolateral to apical (Papp B→A) at 120 min, 5 μM is 34 ×10⁻⁶ cm/s. In data set [1], the “MDCK-MDR1: % Recov A-B” value came to 55% and the “MDCK-MDR1: % Recov B-A” value stood at 70%. Further, the pEC50 in the data set with mHTT protein was 5.00 to 6.30.
